From patent publication US7632858B2 (priority 2002, dated 2009)

Legend:
AR = molecular target: T1, AR (Rattus norvegicus, UniProt P15207)
T1 sequence (P15207 1-902): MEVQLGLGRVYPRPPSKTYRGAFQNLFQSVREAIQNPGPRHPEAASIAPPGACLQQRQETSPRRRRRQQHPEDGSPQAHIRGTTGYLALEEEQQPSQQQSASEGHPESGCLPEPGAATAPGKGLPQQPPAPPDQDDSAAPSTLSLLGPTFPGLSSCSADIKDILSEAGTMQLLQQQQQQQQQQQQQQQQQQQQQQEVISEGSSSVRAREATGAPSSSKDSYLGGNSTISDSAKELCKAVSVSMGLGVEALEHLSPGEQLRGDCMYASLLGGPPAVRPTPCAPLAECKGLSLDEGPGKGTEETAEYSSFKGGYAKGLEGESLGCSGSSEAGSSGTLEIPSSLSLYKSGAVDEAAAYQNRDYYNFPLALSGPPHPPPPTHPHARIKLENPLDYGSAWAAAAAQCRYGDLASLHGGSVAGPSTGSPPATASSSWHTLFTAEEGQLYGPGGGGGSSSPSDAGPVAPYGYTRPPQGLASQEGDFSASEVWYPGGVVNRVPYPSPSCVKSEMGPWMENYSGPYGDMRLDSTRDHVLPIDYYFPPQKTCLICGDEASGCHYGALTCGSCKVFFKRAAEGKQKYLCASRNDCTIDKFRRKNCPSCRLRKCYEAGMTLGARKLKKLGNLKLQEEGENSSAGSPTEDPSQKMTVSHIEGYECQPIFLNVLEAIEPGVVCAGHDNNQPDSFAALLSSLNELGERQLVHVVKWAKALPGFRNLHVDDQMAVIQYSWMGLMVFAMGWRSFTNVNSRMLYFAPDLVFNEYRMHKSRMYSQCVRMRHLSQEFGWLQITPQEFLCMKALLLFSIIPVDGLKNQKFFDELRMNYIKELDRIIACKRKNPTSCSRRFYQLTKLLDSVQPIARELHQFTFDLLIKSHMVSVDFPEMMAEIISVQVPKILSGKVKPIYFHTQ
Description: The activity of compounds of the present invention as AR agonists was investigated in an immature male rat model, a recognized test of anabolic effects in muscle and sustaining effects in sex organs for a given compound, as described in L. G. Hershberger et al., Proc. Soc. […] Biol. Med., 83, 175 (1953); B. L. Beyler et al, “Methods for evaluating anabolic and catabolic agents in laboratory animals”, J. Amer. Med. Women's Ass., 23, 708 (1968); H. Fukuda et al., “Investigations of the levator ani muscle as an anabolic steroid assay”, Nago Dai. […] Nem. 14, 84 (1966) the disclosures of which are herein incorporated by reference.
The basis of this assay lies in the well-defined action of androgenic agents on the maintenance and growth of muscle tissues and sexual accessory organs in animals and man. […] J. Anat. […] Ital. Biol. Sper. […] II. […] Ital. Biol. Sper. 42, 1600 (1966); A. Boris et al., Steroids 15, 61 (1970). As described above, the effects of androgens on maintenance of male sexual accessory organs, such as the prostate and seminal vesicles, is well described. Castration results in rapid involution and atrophy of the prostate and seminal vesicles. This effect can be reversed by exogenous addition of androgens. […]

wild type AR = conditions: read-out: Kd for [3H]-DHT; MDA 453 cells, Scatchard analysis
Experimental: For the whole-cell binding assay, human LNCaP cells (T877A mutant AR) or MDA 453 (wild type AR) in 96-well microtiter plates containing RPMI 1640 or DMEM supplemented with 10% charcoal stripped CA-FBS (Cocaleco Biologicals) respectively, were incubated at 37° C. to remove any endogenous ligand that might be complexed with the receptor in the cells.
For the saturation analysis, the difference between the total binding and the non-specific binding, was defined as specific binding. […] See e.g. D. Rodbard, Mathematics and statistics of ligand assays: an illustrated guide: In: J. Langon and J. J. Clapp, eds., Ligand Assay, Masson Publishing U.S.A., Inc., New York, pp. 45-99, (1981), the disclosure of which is herein incorporated by reference.
Two replicates were used for each sample.

Row | Compound | potency relative to free T (AR; TP versus free T) | EC50 (increase in organ weight) (AR; immature castrated rats) [mg] | Kd (wild type AR) [nM]
1 | CCC(=O)O[C@H]1CC[C@H]2[C@@H]3CCC4=CC(=O)CC[C@]4(C)[C@H]3CC[C@]12C [TP, testosterone propionate] | 10-30 fold | ~0.03 | –
2 | tritiated dihydrotestosterone [[^3H]-DHT] | – | – | 0.7
